Laboratory results as given in US20170121322A1, “BET-PROTEIN INHIBITING 3,4-DIHYDROPYRIDO[2,3-B]PYRAZINONES WITH META-SUBSTITUTED AROMATIC AMINO- OR ETHER GROUPS” (Bayer Pharma Aktiengesellschaft, priority 2014, published 2017).

Experiments:
[1] = biological target: T1, BRD4 bromo domain 2 [BRD4(2)] (Homo sapiens, UniProt O60885); assay: BRD4(2)/acetylated peptide H4 TR-FRET binding assay; details: His6-BRD4(2) (aa 357-445) vs acetylated histone H4 peptide
T1 construct: N-terminally His6-tagged BRD4(2) (amino acids 357-445); made in house; host or cells: E. coli
Method in brief: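 His6-BRD4(2) (aa 357-445, E. coli-expressed, 100 nM) pre-incubated 10 min with compound (11 concentrations, 0.1 nM-20 μM, duplicates), then with biotinylated tetra-acetylated H4 peptide in HEPES pH 7.5 buffer, 1 h at 22 °C plus 3 h to overnight at 4 °C. TR-FRET 665/620 ratio; IC50 from 4-parameter fit.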

[2] = tested on: MOLM-13 cells; assay: Cell proliferation assay MOLM-13, method 1 (alamarBlue); assay type: cell-based; details: Homo sapiens, acute myeloid leukaemia cells, 4000 cells/well, 96-well, 96 hours
Method: (§1) In accordance with the invention, the ability of the substances to inhibit cell proliferation was determined. Cell viability was determined by means of the alamarBlue® reagent (Invitrogen) in a Victor X3 Multilabel Reader (Perkin Elmer). The excitation wavelength was 530 nm and the emission wavelength […].
The MOLM-13 cells (DSMZ, ACC 554) were seeded at a concentration of 4000 cells/well in 100 μl of growth medium (RPMI1640, 10% FCS) on 96-well microtitre plates (method 1).
(§2) After overnight incubation at 37° C., the fluorescence values (CI values) were determined. Then the plates were treated with various substance dilutions (1E-5 M, 3E-6 M, 1E-6 M, 3E-7 M, 1E-7 M, 3E-8 M, 1E-8 M) and incubated at 37° C. over 96 hours (MOLM-13, B16F10, CHL-1 cells) or 120 hours (MOLP-8 cells). Subsequently, the fluorescence values were determined (CO values). For the data analysis, the CI values were subtracted from the CO values and the results were compared between cells which had been treated with various dilutions of the substance or only with buffer solution. The IC50 values (substance concentration needed for 50% inhibition of cell proliferation) were calculated therefrom.
(§3) The substances were tested in the cell lines in Table 2, which represent the indications specified by way of example: […]

[3] = tested on: MOLP-8 cells; assay: Cell proliferation assay MOLP-8 (alamarBlue); assay type: cell-based; details: Homo sapiens, multiple myeloma cells, 120 hours
Method: as §1
The MOLP-8 cells (DSMZ, ACC 569) were seeded at a concentration of 4000 cells/well in 100 μl of growth medium (RPMI1640, 20% FCS) on 96-well microtitre plates.
as §2, §3

[4] = tested on: B16F10 cells; assay: Cell proliferation assay B16F10 (alamarBlue); assay type: cell-based; details: Mus musculus, B16-F10, melanoma (BRAF wild-type) cells, 96 hours
Method: as §1
The B16F10 cells (ATCC, CRL-6475) were seeded at a concentration of 300-500 cells/well in 100 μl of growth medium (DMEM with phenol red, 10% FCS) on 96-well microtitre plates.
as §2, §3

[5] = tested on: CHL-1 cells; assay: Cell proliferation assay CHL-1 (alamarBlue); assay type: cell-based; details: Homo sapiens, melanoma (BRAF wild-type) cells, 96 hours
Method: as §1
The CHL-1 cells (ATCC, CRL-9446) were seeded at a concentration of 1000 cells/well in 100 μl of growth medium (DMEM with glutamine, 10% FCS) on 96-well microtitre plates.
as §2, §3

Row | IC50 [1] [nM] | IC50 [2] [nM] | IC50 [4] [nM] | SMILES | IC50 [3] [nM] | IC50 [5] [nM]
1 | 76 | 205 | 248 | COc1ccc(S(C)(=O)=O)cc1Nc1ccc2c(n1)N(C(C)C)[C@H](C)C(=O)N2C [Example 14, (3R)-4-Isopropyl-6-{[2-methoxy-5-(methylsulphonyl)phenyl]amino}-1,3-dimethyl-3,4-dihydropyrido[2,3-b]pyrazin-2(1H)-one] | 174 | 118
2 | 49 | 149 | 132 | COc1ccc(S(=O)(=O)C2CC2)cc1Nc1ccc2c(n1)N(C(C)C)[C@H](C)C(=O)N2C [Example 15, (3R)-6-{[5-(Cyclopropylsulphonyl)-2-methoxyphenyl]amino}-4-isopropyl-1,3-dimethyl-3,4-dihydropyrido[2,3-b]pyrazin-2(1H)-one] | 118 | 52
3 | 33 | 184 | 180 | COc1ccc(S(=O)(=O)C(C)C)cc1Nc1ccc2c(n1)N(C(C)C)[C@H](C)C(=O)N2C [Example 16, (3R)-4-Isopropyl-6-{[5-(isopropylsulphonyl)-2-methoxyphenyl]amino}-1,3-dimethyl-3,4-dihydropyrido[2,3-b]pyrazin-2(1H)-one] | 135 | 76
4 | 212 | 1410 | 1100 | CC1C(=O)N(C)c2ccc(Nc3cccc(S(C)(=O)=O)c3)nc2N1c1ccccc1 (stereo not drawn) [Example 17, 1,3-Dimethyl-6-{[3-(methylsulphonyl)phenyl]amino}-4-phenyl-3,4-dihydropyrido[2,3-b]pyrazin-2(1H)-one] | 1060 | 800
5 | 180 | 686 | 1080 | Cc1cc(Nc2ccc3c(n2)N(C2CCOCC2)[C@H](C)C(=O)N3C)ccn1 [Example 42, (3R)-1,3-Dimethyl-6-[(2-methylpyridin-4-yl)amino]-4-(tetrahydro-2H-pyran-4-yl)-3,4-dihydropyrido[2,3-b]pyrazin-2(1H)-one] | 436 | 445
6 | 234 | 1220 | 1080 | C[C@@H]1C(=O)N(C)c2ccc(Nc3cccc(C(F)(F)F)c3)nc2N1C1CCOCC1 [Example 43, (3R)-1,3-Dimethyl-4-(tetrahydro-2H-pyran-4-yl)-6-{[3-(trifluoromethyl)phenyl]amino}-3,4-dihydropyrido[2,3-b]pyrazin-2(1H)-one] | 911 | 707
